Several values for one entry are separate records, joined by “and”; a condition that tells them apart may be missing. Identical values can stand only once. Where only a bound is given, the exact number is not on record here.

For assay [1], the target named is T1, rEOPA (recombinant endooligopeptidase A) (Homo sapiens, UniProt Q9GZM8).
T1 construct: poly-histidine tag or anchor protein (e.g. GST) (N, cleaved yes); made in house; host or cells: Escherichia coli (DH5alpha, BL21(DE3) or similar), vector e.g. pProEx-HTc
T1 sequence (Q9GZM8 1-345): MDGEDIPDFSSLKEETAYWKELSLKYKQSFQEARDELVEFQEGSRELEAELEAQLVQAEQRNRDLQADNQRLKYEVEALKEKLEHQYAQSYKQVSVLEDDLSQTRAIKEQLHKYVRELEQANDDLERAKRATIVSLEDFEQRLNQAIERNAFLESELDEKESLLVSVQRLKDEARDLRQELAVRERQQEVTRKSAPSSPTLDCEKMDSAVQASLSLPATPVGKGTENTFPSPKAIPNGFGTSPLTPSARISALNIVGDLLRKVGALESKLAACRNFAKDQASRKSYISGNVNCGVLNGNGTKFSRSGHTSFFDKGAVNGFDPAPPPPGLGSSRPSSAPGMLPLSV
To be noted: state of the art; cited from earlier work.

A further assay deals with neurolysin (NL) (Homo sapiens, UniProt Q9BYT8). The assay can be described thus: Inhibition of neurolysin. Type of assay: biochemical.
neurolysin (NL), sequence (Q9BYT8 38-704): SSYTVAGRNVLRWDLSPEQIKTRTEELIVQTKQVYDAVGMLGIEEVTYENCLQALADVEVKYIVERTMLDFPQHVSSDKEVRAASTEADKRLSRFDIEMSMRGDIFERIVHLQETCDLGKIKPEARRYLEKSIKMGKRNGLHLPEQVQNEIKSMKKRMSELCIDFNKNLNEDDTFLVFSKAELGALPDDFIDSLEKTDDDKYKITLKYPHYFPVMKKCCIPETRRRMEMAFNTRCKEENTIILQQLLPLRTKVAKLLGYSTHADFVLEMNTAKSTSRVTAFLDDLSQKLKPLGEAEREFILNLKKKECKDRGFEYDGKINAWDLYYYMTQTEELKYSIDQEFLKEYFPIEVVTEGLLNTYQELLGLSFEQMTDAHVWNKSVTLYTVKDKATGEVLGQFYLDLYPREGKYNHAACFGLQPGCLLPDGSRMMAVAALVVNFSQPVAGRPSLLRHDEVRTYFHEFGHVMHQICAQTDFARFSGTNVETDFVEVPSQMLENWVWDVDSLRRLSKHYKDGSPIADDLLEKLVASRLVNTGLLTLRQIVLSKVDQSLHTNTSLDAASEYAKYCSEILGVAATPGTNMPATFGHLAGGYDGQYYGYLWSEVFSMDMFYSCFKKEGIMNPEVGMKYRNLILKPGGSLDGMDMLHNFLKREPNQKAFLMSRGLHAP
The test system of assay [2] is neuronal precursor cells from embryonic stem cells (USP-1 lineage). The assay can be described thus: Treatment of neuronal precursor cells differentiated from embryonic stem cells with EOPA inhibitor. Type of assay: cell-based. The note with it: neuronal precursor cells treated with the inhibitor. How it is done: The undifferentiated embryonic stem cells (USP-1 lineage) were cultured in medium containing: DMEM, supplemented with 15% of bovine fetal serum, […] of penicillin/streptomycin and 2 mM of L-glutamine, 1% of non-essential amino acids, 10^−4 M of monothioglicerol, and LIF (Leukemia Inhibitory Factor), in a final concentration of 1,000 units/ml. All the undifferentiated stem cells culture was maintained over a primary culture of previously irradiated murine fibroblasts (Neo Mef2). The differentiation was done after the formation of the embryoid bodies, where 750 cells were maintained in 20 μl of the culture medium drops over a Petri dish, during four days at 37° C., under 5% carbonic gas (during this period the cells form the cellular aggregates known as embryoid bodies). […] After completing the differentiation of the stem cells, the differentiated cells were counted and photographed using a confocal microscopy. A population of cells differentiated into neurons was obtained following the protocol described above, and the influence of the inhibition of the EOPA catalytic activity during the differentiation and maturation process of these neurons was analyzed after the treatment of these cells with the inhibitor JA2.

Assay [3] addresses thimet oligopeptidase (TOP) (Homo sapiens, UniProt P52888). The note with it: cited from earlier work.
Assay [4] addresses T1, rEOPA (recombinant endooligopeptidase A). The assay can be described thus: Inhibition of the catalytic activity of recombinant EOPA (kinetic assay, quenched fluorescence peptide substrate or HPLC). To be noted: for Ki: rEOPA. Type of assay: biochemical. The text has this:
Polyclonal antibodies were generated in rats, mice and rabbits, using the purified natural EOPA or the active recombinant EOPA, expressed in bacteria, specifically in Escherichia coli, for the immunization. Male Balb-C mice, 7 to 8 weeks old, and weighing between 18 and 22 g were immunized with purified natural human EOPA, or catalytically active recombinant enzyme. For each of the four immunizations, 2.mμ.g of the purified protein or 3.mμ.g of the recombinant protein, absorbed on aluminum hydroxide [Al(OH)3] were injected intradermically, in weekly intervals. Blood samples were collected one week after the last immunization, and the serum was stored at −20° C. The antiserum titer was evaluated by ELISA, using the appropriate antigen. The anti-catalytic activity of the obtained antiserum was evaluated by HPLC or fluorimetrically, using the quenched fluorescent peptides substrates. Before use, the antiserum was pre-heated at 55° C., for 5 minutes, in order to eliminate any contaminating peptidase activity. […] Using this antibody, it was possible to discriminate the activity of the EOPA from functionally similar, but not homologous enzymes, such as the TOP and the NL, which are also present in animal tissues and cells lineages.
Kinetic assays using natural peptide substrates like bradykinin, neurotensin and opioid peptides, composed by 9 to 13 amino acid residues, were essential for the discovery and characterization of the EOPA in our laboratory (see the summary of this literature in Camargo et al., 1994). Since 1990, we have developed peptide substrates derived from natural substrates with quenched fluorescence, standardizing the characterization of this enzyme, simplifying and reducing the costs, and making the characterization of the kinetic properties of the EOPA more reliable (Juliano et al., 1990). The peptide substrates with quenched fluorescence (qf) used have the radical Abz (ortho-aminobenzoic acid) at the amino terminus of the peptide, and the EDDnp [N-(2,4-dinitrophenyl)ethylenediamine] at the carboxyl terminus of the peptide. […]

thimet oligopeptidase (TOP), sequence (P52888 whole entry, species assumed): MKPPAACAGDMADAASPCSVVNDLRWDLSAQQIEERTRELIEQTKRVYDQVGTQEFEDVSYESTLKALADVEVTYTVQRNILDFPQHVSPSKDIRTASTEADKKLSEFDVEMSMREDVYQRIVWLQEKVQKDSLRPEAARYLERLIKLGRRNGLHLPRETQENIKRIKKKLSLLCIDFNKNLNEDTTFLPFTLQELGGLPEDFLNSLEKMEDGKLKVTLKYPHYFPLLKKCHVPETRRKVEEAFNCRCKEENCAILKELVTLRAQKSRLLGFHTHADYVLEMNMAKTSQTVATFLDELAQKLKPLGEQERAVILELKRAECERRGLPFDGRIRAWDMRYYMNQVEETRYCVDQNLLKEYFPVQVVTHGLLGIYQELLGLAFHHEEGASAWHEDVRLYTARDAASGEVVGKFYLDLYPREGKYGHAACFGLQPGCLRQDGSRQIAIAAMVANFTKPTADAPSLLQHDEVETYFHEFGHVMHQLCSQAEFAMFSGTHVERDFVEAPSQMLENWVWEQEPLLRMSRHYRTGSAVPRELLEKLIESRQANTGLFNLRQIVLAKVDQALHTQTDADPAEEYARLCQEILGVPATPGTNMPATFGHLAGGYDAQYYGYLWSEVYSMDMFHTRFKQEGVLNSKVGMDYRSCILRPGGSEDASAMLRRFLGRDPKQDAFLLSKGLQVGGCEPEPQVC

As to `O[C@H](CS)[C@H](O)CS` (racemic) [dithiothreitol (DTT), dithiothreitol], in assay [1], the “effect of thiol agents on EOPA activity (kinetic assays)” value (from here on “effect of thiol agents on EOPA activity”) was “activated”.
For the compound `C[C@H](NC(CCc1ccccc1)C(=O)O)C(=O)NC(C)(C)C(=O)N[C@@H](Cc1ccc(O)cc1)C(=O)Nc1ccc(C(=O)O)cc1` (stereo partly shown) [JA2], the inhibitory constant (Ki) (as a rule, a measure of affinity in units of concentration, obtained from inhibition or displacement) at neurolysin (NL) is above 200 nM; in assay [3] it was 23 nM; in assay [4], ~17 nM and 17 nM. In assay [2], the “differentiation of the cells” value is reported as “abnormal differentiation of the cells”. Further, the neurites formation entry in assay [2] is “inhibition of the neurites formation”.
As for `O=C(O)CN(CCN(CC(=O)O)CC(=O)O)CC(=O)O` [EDTA], in assay [4], the “sensitivity of EOPA to metalloprotease-directed agents” value was “insensible”.
With `O=C(O)c1cc(SSc2ccc([N+](=O)[O-])c(C(=O)O)c2)ccc1[N+](=O)[O-]` [5′-dithio-bis-(2-nitrobenzoic acid)], the “effect of thiol agents on EOPA activity” value in assay [1] is recorded as “inhibited”.
For `C[C@H](NC(=O)[C@H](C)NC(CCc1ccccc1)C(=O)O)C(=O)N[C@@H](Cc1ccc(O)cc1)C(=O)Nc1ccc(C(=O)O)cc1` (stereo partly shown) [cFP], in assay [4], the Ki was around 17 nM.
Take `O=C(O)c1cc[c]([Hg][Cl])cc1` [p-chloromercuribenzoate (PCMB), p-chloromercuribenzoate]: the “effect of thiol agents on EOPA activity” value in assay [1] is on record as “inhibited”.

Values taken from patent publication US20090017042A1, “PROCESS FOR THE DETERMINATION OF THE PRIMARY STRUCTURE OF THE MESSENGER RNA CODING FOR THE HUMAN RECOMBINANT ENDOOLIGOPEPTIDASE A (HEOPA) [AF217798]” (priority 2002, published 2009).
